Values of other authors, collected in patent US11419848B2, “Combination of unsaponifiable lipids combined with polyphenols and/or catechins for the protection, treatment and repair of cartilage in joints of humans and animals” (NUTRAMAX LABORATORIES, INC., priority 2004, dated 2022).

What was measured:
[1] = tested on: chronic inflammation model; details: administered topically and in a chronic inflammation model, mouse
[2] = identified in ethanolic extract of cactus
carrageenan paw oedema = details: rats, extracts of Verbena officinalis
[3] = tested on: IL-1 induced expression of nitric oxide synthase and nitric oxide production

CC[C@H](/C=C/[C@@H](C)[C@H]1CC[C@H]2[C@@H]3CC=C4C[C@@H](O)CC[C@]4(C)[C@H]3CC[C@]12C)C(C)C [stigmasterol]
anti-inflammatory activity [1]: potent anti-inflammatory agents

CC[C@H](CC[C@@H](C)[C@H]1CC[C@H]2[C@@H]3CC=C4C[C@@H](O)CC[C@]4(C)[C@H]3CC[C@]12C)C(C)C [beta sitosterol]
anti-inflammatory activity [2]: anti-inflammatory activity | anti-inflammatory activity (carrageenan paw oedema): one of the potent anti-inflammatory agents | anti-inflammatory activity [1]: potent anti-inflammatory agents

O=C(O[C@@H]1Cc2c(O)cc(O)cc2O[C@@H]1c1cc(O)c(O)c(O)c1)c1cc(O)c(O)c(O)c1 [EGCG, epigallocatechin gallate]
IL-1 induced expression of nitric oxide synthase and nitric oxide production [3]: inhibits | activation of nuclear factor-kB [3]: suppresses
